What was measured:
PC3 cells = experiment: PC3 human prostate cancer cell tumor model in mice; assay type: in vivo; details: for tumor growth: FIG. 138
Description: The ability of MIF-GN3 to mediate the depletion of MIF in a therapeutically relevant disease model was investigated. […] An experiment was conducted to determine whether the bifunctional molecule MIF-GN3 can deplete sufficient human MIF from serum to slow PC3 tumor growth. Mice were injected with an aliquot of PC3 cells, and the size of the resultant tumors as well as the levels of human MIF in serum were monitored over five weeks. […] Five weeks after the initial PC3 cell injection, the first of the mice reached maximal tumor size ([…]) and was sacrificed (FIG. 138). […] The decrease in human MIF levels mediated by MIF-GN3 is consistent with a mechanism of action in which MIF-GN3 mediates the depletion and degradation of circulating MIF protein. While the α-MIF antibody would not necessarily be expected to decrease the levels of human MIF, it is possible that the antibody mediates MIF neutralization in a manner which masks its signal as determined by ELISA. Alternatively, the α-MIF antibody may mediate depletion or degradation of huMIF by some endocytic mechanism. Another possible explanation is that the α-MIF antibody decrease serum levels of active human MIF to such an extent at early time points that PC3 cells proliferate much more slowly, and therefore fewer cells are actively secreting human MIF.
Mice were sacrificed when their tumor volumes reached 1000 mm^3. […] At this same time point, less than 25% of the mice in any other arm had survived.

human MIF = target: T1, human MIF (Homo sapiens, UniProt P14174); experiment: Depletion of injected recombinant human MIF from serum in mice; assay type: in vivo; set-up: injected into mice; details: for depletion of human MIF protein from serum: 30 minutes, FIG. 135
T1 sequence (P14174 2-115 limits assumed): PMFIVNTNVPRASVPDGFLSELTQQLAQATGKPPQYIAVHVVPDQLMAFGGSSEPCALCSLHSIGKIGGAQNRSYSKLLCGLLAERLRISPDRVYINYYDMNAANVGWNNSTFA
Description: In vivo human MIF depletion experiments were undertaken to determine whether MIF-GN3 can mediate the depletion of injected recombinant human MIF from serum in mice. Mice were injected with five μg of the human MIF protein. In this experiment, one group of mice was also injected with a single 10 mpk dose of MLF-GN3 along with human MIF protein. It was observed that after four hours, the average level of human MIF in serum in the PBS-treated mice was 1.76 ng/mL (FIG. 134). In mice treated with 10 mpk MIF-GN3, however, the concentration of human MIF in serum was 0.68 ng/mL. One day after the initial injection, human MIF levels had reached background levels for both conditions. […] It was hypothesized that, due to the short half-life of human MIF in serum, investigating human MIF levels at earlier time points may be more informative.
Next, an experiment was performed to determine whether MIF-GN3 could enhance MIF clearance at time points earlier than four hours. Mice were coinjected with recombinant human MIF and 10 mpk MIF-GN3 via either i.p. or i.v. routes. For the PBS control arms, human MIF was injected with PBS. It was observed that in the absence of MIF-GN3, there was a spike in huMIF levels in circulation after 30 minutes (FIG. 135). In the presence of MIF-GN3, however, levels of MIF protein remained low at 30 minutes and no spike in its concentration was observed. By two hours, the levels of human MIF in circulation decreased to background levels.
In a further experiment, whether an inhibitor of the MIF protein (3w) is able to mediate the protein's depletion from serum was determined. A bifunctional molecule that mediates the depletion of α-DNP antibody from serum was also assayed as a negative control. Neither of these molecules was expected to mediate the formation of a ternary complex between human MIF protein and ASGPR.

HepG2 cells [1] = experiment: Subcellular localization and degradation of α-DNP antibody endocytosed with DNP-GN3 (microscopy, western blotting); assay type: cell-based, human
Description: In addition, western blotting with an antibody directed to Alexa Fluor 488 was used to determine if endocytosed fluorescently labeled α-DNP antibodies are degraded in vitro. […] Signal arising from Alexa Fluor 488 in cell lysates was associated with only full-length antibody after two hours of incubation. After six hours, a lower molecular weight fluorophore-associated protein fragment between 37 and 50 kDa began to appear. An additional protein fragment with a molecular weight between 25 and 37 kDa was observed after 24 hours. […] Together with the above immunofluorescence studies showing the colocalization of α-DNP antibody-derived fluorescence with lysosomes, these studies support that α-DNP antibody degradation is mediated by lysosomal proteases. Lysosomal degradation is further consistent with a mechanism dependent on ASGPR.

HepG2 cells [2] = experiment: MIF-GN3-mediated endocytosis of Alexa 488-labeled human MIF by HepG2 cells; details: FIG. 131
Description: Human MIF protein was fluorescently labeled with Alexa 488 NHS ester, then incubated with HepG2 cells in the presence of varying levels of MIF-GN3.
The ability of MIF-GN3 to mediate MIF endocytosis over a wide range of target protein concentrations was assessed.
Next, inhibitors of various endocytic pathways were utilized to determine if MIF-GN3 mediates MIF endocytosis in a manner consistent with ASGPR (FIG. 132).

[3] = MIF-GN3 at 10 mpk, control arms DNP-GN3 and 3w

SMILES | tumor growth (PC3 cells; [3]) | human MIF concentration in serum compared to the PBS control (human MIF; control molecules injected along with human MIF, FIG. 136) | colocalization of endocytosed α-DNP antibody with lysosome membrane protein LAMP2 (HepG2 cells [1]; after 12 hours, FIG. 91B) | degradation of endocytosed α-DNP antibody (western blot for Alexa Fluor 488) (HepG2 cells [1]; cell lysates, 2 to 24 hours, FIG. 92A) | levels of human MIF protein in the serum (PC3 cells; MIF-GN3 1 mpk, α-MIF antibody arm, FIG. 139) | tumor growth (PC3 cells; MIF-GN3 at a dose of 1 mpk, α-MIF antibody arm) | survival (PC3 cells; eight weeks after the initial PC3 cell injection, MIF-GN3 1 mpk, FIG. 140) [%] | depletion of human MIF protein from serum (human MIF; 10 mpk coinjected i.p.) | depletion of human MIF protein from serum (human MIF; 10 mpk coinjected i.v.) | human MIF levels in serum compared to the PBS control (human MIF; one mpk, 40 and 60 minute time points, FIG. 136) | concentration of human MIF in serum (human MIF; single 10 mpk dose with five μg human MIF, after four hours, PBS-treated 1.76 ng/mL, difference not significant, FIG. 134) [ng/mL] | human MIF levels in serum compared to the PBS control (human MIF; ten mpk, 40 and 60 minutes, FIG. 136) | fluorescence of cells relative to cells not treated with bifunctional molecule (HepG2 cells [2]; MIF protein 10 nM, 200 nM MIF-GN3) [fold] | MIF uptake at high concentration compared to lower concentrations (HepG2 cells [2]; MIF protein 100 nM, MIF-GN3 5.00 μM)
CC(=O)NC1C(OCCOCCOCCNC(=O)CCOCC(COCCC(=O)NCCOCCOCCOC2OC(CO)C(O)C(O)C2NC(C)=O)(COCCC(=O)NCCOCCOCCOC2OC(CO)C(O)C(O)C2NC(C)=O)NC(=O)CNC(=O)COCCOCCOCCNc2ccc([N+](=O)[O-])cc2[N+](=O)[O-])OC(CO)C(O)C1O (stereo not drawn) [DNP-GN3] | not found to decrease tumor growth | no significant decreases | strong colocalization | endocytosed α-DNP antibody is degraded in HepG2 cells | – | – | – | – | – | – | – | – | – | –
CC(=O)N[C@H]1[C@H](OCCOCCOCCNC(=O)CCOCC(COCCC(=O)NCCOCCOCCO[C@@H]2O[C@H](CO)[C@H](O)[C@H](O)[C@H]2NC(C)=O)(COCCC(=O)NCCOCCOCCO[C@@H]2O[C@H](CO)[C@H](O)[C@H](O)[C@H]2NC(C)=O)NC(=O)CNC(=O)CCCOc2ccc3nc(-c4cn(-c5ccc(O)c(F)c5)nn4)ccc3c2)O[C@H](CO)[C@H](O)[C@@H]1O [MIF-GN3] | not found to decrease tumor growth | – | – | – | decreased levels | delay in tumor growth | 80 | significant depletion | significant depletion | significant decrease | 0.68 | significant decreases | 4 | slight decrease in MIF uptake

Source: patent publication US20250269043A1, “TARGETED BIFUNCTIONAL DEGRADERS” (YALE UNIVERSITY, priority 2019, published 2025)
